Data from patent US7507733B2, “11b-HSD1 inhibitors for the treatment of diabetes” (Hoffmann-La Roche Inc., priority 2004, dated 2009).

Assays:
11beta-HSD1 [1] = molecular target: T1, 11beta-HSD1 (Homo sapiens, UniProt P28845); assay: Microsome assay: cortisone to cortisol conversion, ELISA detection; type: biochemical; design: The cDNA encoding the human 11beta-HSD1 protein was cloned into the expression vector pcDNA3; made in house; host or cells: HEK293 cells (ATCC CRL-1573), transient transfection; microsomal fraction; conditions: microsomes from HEK293 cells transiently expressing human 11beta-HSD1; 60 min, 37° C.; Cortisone 50-200 nM, NADPH 1 mM; read-out: h 11-beta-HSD 1 IC50
Method: The cDNA encoding the human 11beta-HSD1 protein was cloned into the expression vector pcDNA3 ([…]). This construct (for details see Alex Odermatt et al.; J Biol Chem., 1999, Vol. 274, Issue 40, 28762-28770) was used to transiently express the protein in HEK293 cells (ATCC number: CRL-1573, described in Graham, F. L., Smiley, J., Russell, W. C., Nairn, R.; (1977)) using lipofectamine. 48 h after transfection cells were washed twice with ice-cold PBS (Phsophate buffered Saline). To 1 volume of cell suspension in PBS 2 volumes of ice-cold lysis buffer (50 mM Tris; pH7.5; 1 mM EDTA; 100 mM NaCl) were added. The cells were lysed by Potter-homogenization (20 strokes). The resulting homogenate was sonicated with a tip sonicator (10% output; 2×30 sec.) and cleared by a low speed centrifugation (10 min×9000 g; 4° C.). The microsomal fraction was collected by a high speed centrifugation (60 min×110,000 g). […]
Microsomes isolated from HEK293 cells transiently expressing human 11beta-HSD1 (for details see above) were incubated in assay buffer (100 mM NaCl; 1 mM EDTA; 1 mM EGTA; 1 mM MgCl; 250 mM Sucrose; 20 mM Tris pH 7.4; Cortisone 50-200 nM and NADPH 1 mM) together with different concentrations of test substances. […] The amount of Cortisol produced in this assay was determined using a commercially available, ELISA-based Cortisol-detection kit (Distributed by Assay Design, Inc.). […]

11beta-HSD1 [2] = molecular target: T1, 11beta-HSD1; design: host or cells: human subjects (in vivo); conditions: treatment of humans with carbenoxolone; cited from earlier work

T1 sequence (P28845 whole entry): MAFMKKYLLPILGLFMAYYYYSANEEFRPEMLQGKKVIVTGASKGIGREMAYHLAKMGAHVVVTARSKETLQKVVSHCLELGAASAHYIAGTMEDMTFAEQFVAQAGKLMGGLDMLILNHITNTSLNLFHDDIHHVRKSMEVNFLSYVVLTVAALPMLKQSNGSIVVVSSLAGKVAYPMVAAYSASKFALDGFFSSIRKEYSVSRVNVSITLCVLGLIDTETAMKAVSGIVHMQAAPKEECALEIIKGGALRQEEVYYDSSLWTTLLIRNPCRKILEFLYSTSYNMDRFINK

SMILES | IC50 (11beta-HSD1 [1]) | effect on insulin sensitivity (11beta-HSD1 [2])
O=S(=O)(Nc1ccnc(C2CC2)n1)c1ccc(-c2ccccc2)cc1 [Example 5, Biphenyl-4-sulfonic acid (2-cyclopropyl-pyrimidin-4-yl)-amide] | 20 nM | 
CC(C)c1nccc(NS(=O)(=O)c2ccc3ccccc3c2)n1 [Example 26, Naphthalene-2-sulfonic acid (2-isopropyl-pyrimidin-4-yl)-amide] | 167 nM | 
CC1(C)[C@@H](OC(=O)CCC(=O)O)CC[C@]2(C)[C@H]3C(=O)C=C4[C@@H]5C[C@@](C)(C(=O)O)CC[C@]5(C)CC[C@@]4(C)[C@]3(C)CC[C@@H]12 [carbenoxolone] |  | increase in insulin sensitivity
